Values of other authors, collected in article PMC11040670, “Mechanistic and Kinetic Insights into Cellular Uptake of Biomimetic Dinitrosyl Iron Complexes and Intracellular Delivery of NO for Activation of Cytoprotective HO-1” (JACS Au, 2024).

Key:
[1] = set-up: method as in doi:10.1021/j100627a005; conditions: cited from earlier work
[2] = test system: Prx 1; set-up: method as in earlier work; conditions: generated [(NO)2Fe(SGS)(SCys-Prx1)]n–, phosphate buffer (pH 7.4), normoxia; ref SI 4; cited from earlier work

Compound	pKa for the carboxylic acid group [1]	k, second-order rate constant [2]
O=C(O)CCS [HSCH2CH2COOH]	4.3	–
[(NO)2Fe(SGS)2]n– and [(NO)2Fe(-SGS)2Fe(NO)2]m– [DNDGIC]	–	7.0 ± 0.4 M⁻¹ s⁻¹
